Legend:
Test in all cases: relative viability (nuclei count vs DMSO), 5 days (fraction); higher = more cells survive
MK-8033 + Palbociclib = compound: Cn1cc(-c2cnc3ccc4ccc(CS(=O)(=O)NCc5ccccn5)cc4c(=O)c3c2)cn1 [MK-8033] + CC(=O)c1c(C)c2cnc(Nc3ccc(N4CCNCC4)cn3)nc2n(C2CCCC2)c1=O [Palbociclib] (partner 0.5 µM)
How it was run: (§1)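 Relative viability is defined as nuclei in treated wells over nuclei in vehicle wells. Duplicate plates were run and medians reported. Lung cancer cell lines in 1536-well plates were dosed by pin tool one day after seeding, with one drug or with a fixed anchor-drug dose plus five library-drug doses (not always all listed) in √10 steps, and nuclei were counted after 5 days.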

RU-SKI 43 + Lapatinib = compound: CC[C@@H](C)CNCC(=O)N1CCC2=C([C@@H]1COC3=CC=CC(=C3)C)C=CS2 [RU-SKI 43] + CS(=O)(=O)CCNCc1ccc(-c2ccc3ncnc(Nc4ccc(OCc5cccc(F)c5)c(Cl)c4)c3c2)o1 [Lapatinib] (partner 2 µM)
How it was run: as §1

MK-8033 + Trametinib = compound: Cn1cc(-c2cnc3ccc4ccc(CS(=O)(=O)NCc5ccccn5)cc4c(=O)c3c2)cn1 [MK-8033] + CC(=O)Nc1cccc(-n2c(=O)n(C3CC3)c(=O)c3c(Nc4ccc(I)cc4F)n(C)c(=O)c(C)c32)c1 [Trametinib] (partner 0.02 µM)
How it was run: as §1

MK-8033 + Crizotinib = compound: Cn1cc(-c2cnc3ccc4ccc(CS(=O)(=O)NCc5ccccn5)cc4c(=O)c3c2)cn1 [MK-8033] + C[C@@H](Oc1cc(-c2cnn(C3CCNCC3)c2)cnc1N)c1c(Cl)ccc(F)c1Cl [Crizotinib] (partner 1 µM)
How it was run: as §1

SK-MES-1
relative viability (MK-8033 + Palbociclib; first compound 0.02 µM): 0.333 | relative viability (MK-8033 + Palbociclib; first compound 0.06325 µM): 0.299 | relative viability (MK-8033 + Palbociclib; first compound 0.2 µM): 0.305 | relative viability (MK-8033 + Palbociclib; first compound 0.6325 µM): 0.359 | relative viability (MK-8033 + Palbociclib; first compound 2 µM): 0.309 | relative viability (RU-SKI 43 + Lapatinib; first compound 0.1 µM): 0.471 | relative viability (RU-SKI 43 + Lapatinib; first compound 0.3162 µM): 0.49 | relative viability (RU-SKI 43 + Lapatinib; first compound 1 µM): 0.519 | relative viability (RU-SKI 43 + Lapatinib; first compound 3.162 µM): 0.51 | relative viability (RU-SKI 43 + Lapatinib; first compound 10 µM): 0.422 | relative viability (MK-8033 + Trametinib; first compound 0.02 µM): 0.44 | relative viability (MK-8033 + Trametinib; first compound 0.06325 µM): 0.478 | relative viability (MK-8033 + Trametinib; first compound 0.2 µM): 0.539 | relative viability (MK-8033 + Trametinib; first compound 0.6325 µM): 0.583 | relative viability (MK-8033 + Trametinib; first compound 2 µM): 0.534 | relative viability (MK-8033 + Crizotinib; first compound 0.02 µM): 0.96 | relative viability (MK-8033 + Crizotinib; first compound 0.06325 µM): 0.959 | relative viability (MK-8033 + Crizotinib; first compound 0.2 µM): 0.919 | relative viability (MK-8033 + Crizotinib; first compound 0.6325 µM): 1.01 | relative viability (MK-8033 + Crizotinib; first compound 2 µM): 0.992

HOP-62
relative viability (MK-8033 + Palbociclib; first compound 0.02 µM): 0.469 | relative viability (MK-8033 + Palbociclib; first compound 0.06325 µM): 0.41 | relative viability (MK-8033 + Palbociclib; first compound 0.2 µM): 0.425 | relative viability (MK-8033 + Palbociclib; first compound 0.6325 µM): 0.496 | relative viability (MK-8033 + Palbociclib; first compound 2 µM): 0.446 | relative viability (RU-SKI 43 + Lapatinib; first compound 0.1 µM): 0.973 | relative viability (RU-SKI 43 + Lapatinib; first compound 0.3162 µM): 1.28 | relative viability (RU-SKI 43 + Lapatinib; first compound 1 µM): 0.883 | relative viability (RU-SKI 43 + Lapatinib; first compound 3.162 µM): 1.03 | relative viability (RU-SKI 43 + Lapatinib; first compound 10 µM): 0.877 | relative viability (MK-8033 + Trametinib; first compound 0.02 µM): 0.315 | relative viability (MK-8033 + Trametinib; first compound 0.06325 µM): 0.381 | relative viability (MK-8033 + Trametinib; first compound 0.2 µM): 0.344 | relative viability (MK-8033 + Trametinib; first compound 0.6325 µM): 0.371 | relative viability (MK-8033 + Trametinib; first compound 2 µM): 0.35 | relative viability (MK-8033 + Crizotinib; first compound 0.02 µM): 0.857 | relative viability (MK-8033 + Crizotinib; first compound 0.06325 µM): 0.899 | relative viability (MK-8033 + Crizotinib; first compound 0.2 µM): 0.808 | relative viability (MK-8033 + Crizotinib; first compound 0.6325 µM): 0.894 | relative viability (MK-8033 + Crizotinib; first compound 2 µM): 0.878

NCI-H520
relative viability (MK-8033 + Palbociclib; first compound 0.02 µM): 0.209 | relative viability (MK-8033 + Palbociclib; first compound 0.06325 µM): 0.231 | relative viability (MK-8033 + Palbociclib; first compound 0.2 µM): 0.184 | relative viability (MK-8033 + Palbociclib; first compound 0.6325 µM): 0.254 | relative viability (MK-8033 + Palbociclib; first compound 2 µM): 0.205 | relative viability (RU-SKI 43 + Lapatinib; first compound 0.1 µM): 0.897 | relative viability (RU-SKI 43 + Lapatinib; first compound 0.3162 µM): 0.986 | relative viability (RU-SKI 43 + Lapatinib; first compound 1 µM): 0.996 | relative viability (RU-SKI 43 + Lapatinib; first compound 3.162 µM): 0.951 | relative viability (RU-SKI 43 + Lapatinib; first compound 10 µM): 0.756 | relative viability (MK-8033 + Trametinib; first compound 0.02 µM): 0.615 | relative viability (MK-8033 + Trametinib; first compound 0.06325 µM): 0.565 | relative viability (MK-8033 + Trametinib; first compound 0.2 µM): 0.56 | relative viability (MK-8033 + Trametinib; first compound 0.6325 µM): 0.795 | relative viability (MK-8033 + Trametinib; first compound 2 µM): 0.629 | relative viability (MK-8033 + Crizotinib; first compound 0.02 µM): 0.797 | relative viability (MK-8033 + Crizotinib; first compound 0.06325 µM): 0.678 | relative viability (MK-8033 + Crizotinib; first compound 0.2 µM): 0.663 | relative viability (MK-8033 + Crizotinib; first compound 0.6325 µM): 0.59 | relative viability (MK-8033 + Crizotinib; first compound 2 µM): 0.78

EBC-1
relative viability (RU-SKI 43 + Lapatinib; first compound 0.1 µM): 0.186 | relative viability (RU-SKI 43 + Lapatinib; first compound 0.3162 µM): 0.189 | relative viability (RU-SKI 43 + Lapatinib; first compound 1 µM): 0.215 | relative viability (RU-SKI 43 + Lapatinib; first compound 3.162 µM): 0.197 | relative viability (RU-SKI 43 + Lapatinib; first compound 10 µM): 0.181 | relative viability (MK-8033 + Crizotinib; first compound 0.02 µM): 0.158 | relative viability (MK-8033 + Crizotinib; first compound 0.06325 µM): 0.16 | relative viability (MK-8033 + Crizotinib; first compound 0.2 µM): 0.193 | relative viability (MK-8033 + Crizotinib; first compound 0.6325 µM): 0.193 | relative viability (MK-8033 + Crizotinib; first compound 2 µM): 0.188
